The target in assay [1] is T1, HSD17B13 enzyme (Homo sapiens (Human), UniProt Q7Z5P4). Nature of the assay: Estrone detection assay (LC/MS, conversion of estradiol to estrone) for HSD17B13 activity. The following applies: substrate 4 µM estradiol, 6 mM NAD+, 30 nM enzyme. In kind it is biochemical. On the procedure: The liquid chromatography/mass spectrometry (LC/MS) estrone detection assay monitors the conversion of estradiol to estrone by HSD17B13. This assay was undertaken in a 96wp format (Eppendorf deep well Plate 96/500) in an 80 µl reaction volume containing: 4 µM of Estradiol (E2; Cayman; #10006315), 6 mM NAD^+ (Sigma; #N0623) and 30 nM HSD17B13 enzyme (in-house; E. coli expressed His-tagged, purified, soluble protein) in a reaction containing 1 M potassium phosphate buffer pH 7.4, with 0.5% vehicle (DMSO). Reactions were incubated for 2 hours at 26.5° C., and estradiol (E2) conversion to estrone (E1) was quantitated by LC-MS/MS based analyte detection for both E2 and E1 using LCMS grade reagents.
T1 sequence (Q7Z5P4 20-300): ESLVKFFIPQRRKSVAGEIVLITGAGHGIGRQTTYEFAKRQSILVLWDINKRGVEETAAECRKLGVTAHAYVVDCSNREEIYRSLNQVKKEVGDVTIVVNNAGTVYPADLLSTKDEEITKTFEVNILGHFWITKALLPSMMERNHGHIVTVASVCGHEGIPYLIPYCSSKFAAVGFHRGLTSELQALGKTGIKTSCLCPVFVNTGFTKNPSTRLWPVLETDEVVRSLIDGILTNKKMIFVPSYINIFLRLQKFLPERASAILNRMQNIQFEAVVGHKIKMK
Reactions were terminated by the addition of two volumes of acetonitrile (MeCN; LCMS grade; CAS# 75/05/8) containing deuterated (D4)-E1 used as internal standard (Clear Synth; #CS-T-54273; 500 ng/mL final concentration). Samples were applied to pre-prepared Bond Elut-C18 extraction cartridges (3 mL; Agilent; #12102028), washed and eluted in MeCN. Eluates were dried under nitrogen and re-suspended in 60% methanol (LCMS grade methanol; CAS# 67/56/1) before submission for analysis. Aqueous linearity for E2 and E1 were included for quantification.
Analysis of samples was undertaken on a XBridge BEH C18 column (Waters; #186003033) using 0.1% Diethyl Amine in MeCN (mobile phase A; DEA CAS# 109-89-7) and 0.1% Diethyl Amine in milli-Q water (mobile phase B) in a 3 min gradient allowing 25%B. Analytes were detected in negative mode using MRM analysis, with E2 having a RT of 1.85 min and E1 having a RT of 2 min. Activity of the enzyme, in the absence of NAD^+, was used to evaluate specificity of conversion. Enzyme activity in the presence of test samples was expressed as a percentage of the uninhibited enzyme activity, and plotted versus inhibitor concentration. Non-linear regression was performed using a four-parameter logistic model and GraphPad Prism software (GraphPad Software, La Jolla, CA). All assessments were undertaken in duplicate evaluations and pooled during extraction process and subsequently injected as duplicates for LC-MS/MS analysis.

Assay [2] has as its target T1, HSD17B13 enzyme. Kind of assay: NADH detection assay (fluorescence based LTB3 assay) for HSD17B13 activity. In kind it is biochemical. The conditions noted are these: substrate 25 µM LTB3, 3 mM NAD+, 125 nM enzyme. Here is the method:
The fluorescence based Leukotriene B3 (LTB3) assay monitors the fluorescence of NADH, which is generated from NAD+ during the dehydrogenation of the substrate LTB3. The reactions were performed in a 384-well plates (Greiner; #655076) in a 20 µl reaction volume containing the following reagents (final concentrations): 25 µM LTB3 (Cayman; #20109); 3 mM NAD^+ (Sigma; #N0623); 125 nM HSD17B13 enzyme (in-house; E. coli expressed His-tagged, purified, soluble protein); 1 M potassium phosphate buffer, pH 7.4; and 1% DMSO. Reactions were initiated by co-addition of NAD+ and enzyme, and monitored for 1 hour at 26.5° C. Generation of NADH was measured as the fluorescence signal (Excitation at 340 nm and Emission at 445 nm) at 1 hour minus the baseline fluorescence at t=0. Fluorescence signals in the absence of LTB3 (negative control values), were subtracted from all values so that the results reflected substrate-dependent production of NADH. NADH standards were included to allow the conversion of relative fluorescence units into rates of enzyme activity. Enzyme activity in the presence of test compounds was expressed as a percentage of the uninhibited enzyme activity, and plotted versus inhibitor concentration. Non-linear regression was performed using a four-parameter logistic model and Microsoft Excel Solver software Ten concentrations of inhibitor were tested in duplicate (in the range of 30 µM - 2.5 nM), and two independent concentration response assays were performed.

Each structure is given as a SMILES string.

For `COc1ccccc1CCn1cnc2cccc(NC(=O)c3ccc(O)c(Cl)c3)c2c1=O` [Example 1, 3-chloro-4-hydroxy-N-(3-(2-methoxyphenethyl)-4-oxo-3,4-dihydroquinazolin-5-yl)benzamide], the IC50 (commonly the concentration needed to halve the response being measured) is ≤ 100 nM against HSD17B13 enzyme [1] and ≤ 1000 nM on HSD17B13 enzyme [2].

Turning to `COc1ccccc1CCn1cnc2cccc(NC(=O)c3ccc(O)c(F)c3)c2c1=O` [Example 2, 3-fluoro-4-hydroxy-N-(3-(2-methoxyphenethyl)-4-oxo-3,4-dihydroquinazolin-5-yl)benzamide], the half-inhibitory concentration (IC50) against HSD17B13 enzyme [1] was ≤ 100 nM; against HSD17B13 enzyme [2], ≤ 1000 nM. On to `O=C(Nc1cccc2ncn(Cc3ccccc3)c(=O)c12)c1ccc(O)c(Cl)c1` [Example 3, N-(3-benzyl-4-oxo-3,4-dihydroquinazolin-5-yl)-3-chloro-4-hydroxybenzamide], for which the IC50 on HSD17B13 enzyme [1] was ≤ 100 nM; against HSD17B13 enzyme [2], ≤ 1000 nM.

Regarding `COc1ccccc1CCn1cnc2cccc(NC(=O)c3ccc(OCC(=O)O)c(F)c3)c2c1=O` [Example 4, 2-(2-fluoro-4-((3-(2-methoxyphenethyl)-4-oxo-3,4-dihydroquinazolin-5-yl)carbamoyl)phenoxy)acetic acid], the IC50 against HSD17B13 enzyme [1] is 1000 to 10000 nM; against HSD17B13 enzyme [2], > 10000 nM.

With `COc1ccccc1CCn1cnc2cccc(NC(=O)c3ccc(C(=O)O)c(Cl)c3)c2c1=O` [Example 5, 2-chloro-4-((3-(2-methoxyphenethyl)-4-oxo-3,4-dihydroquinazolin-5-yl)carbamoyl)benzoic acid], the IC50 against HSD17B13 enzyme [1] is 1000 to 10000 nM; at HSD17B13 enzyme [2], > 10000 nM. Taken in the same sequence, the figures for `COc1ccccc1Cn1cnc2cccc(NC(=O)c3ccc(O)c(Cl)c3)c2c1=O` [Example 6, 3-chloro-4-hydroxy-N-(3-(2-methoxybenzyl)-4-oxo-3,4-dihydroquinazolin-5-yl)benzamide] were ≤ 100 nM and ≤ 1000 nM. Taken in the same sequence, the figures for `COc1ccccc1CCn1cnc2cccc(NC(=O)c3ccnc(C(F)(F)F)c3)c2c1=O` [Example 7, N-(3-(2-methoxyphenethyl)-4-oxo-3,4-dihydroquinazolin-5-yl)-2-(trifluoromethyl)isonicotinamide] were > 10000 nM and > 10000 nM. With `O=C(Nc1cccc2ncn(-c3ccccc3)c(=O)c12)c1ccc(O)c(Cl)c1` [Example 8, 3-chloro-4-hydroxy-N-(4-oxo-3-phenyl-3,4-dihydroquinazolin-5-yl)benzamide], the IC50 against HSD17B13 enzyme [1] was 100 to 1000 nM; at HSD17B13 enzyme [2] it was > 10000 nM. Taken in the same sequence, the figures for `O=C(Nc1cccc2ncn(-c3cccnc3)c(=O)c12)c1ccc(O)c(Cl)c1` [Example 9, 3-chloro-4-hydroxy-N-(4-oxo-3-(pyridin-3-yl)-3,4-dihydroquinazolin-5-yl)benzamide] were 100 to 1000 nM and > 10000 nM. Taken in the same sequence, the figures for `CC(C)(C)CCn1cnc2cccc(NC(=O)c3ccc(O)c(Cl)c3)c2c1=O` [Example 10, 3-chloro-N-(3-(3,3-dimethylbutyl)-4-oxo-3,4-dihydroquinazolin-5-yl)-4-hydroxybenzamide] were ≤ 100 nM and ≤ 1000 nM. Taken in the same sequence, the figures for `Cn1c(-c2cccnc2)nc2cccc(NC(=O)c3ccc(O)c(Cl)c3)c2c1=O` [Example 11, 3-chloro-4-hydroxy-N-(3-methyl-4-oxo-2-(pyridin-3-yl)-3,4-dihydroquinazolin-5-yl)benzamide] were 100 to 1000 nM and 1000 to 5000 nM.

As for `O=C(Nc1cccc2ncn(CC3CC3)c(=O)c12)c1ccc(S(=O)(=O)NC(=O)c2ccccc2)c(Cl)c1` [Example 14, 4-(N-benzoylsulfamoyl)-3-chloro-N-(3-(cyclopropylmethyl)-4-oxo-3,4-dihydroquinazolin-5-yl)benzamide], the concentration for half-maximal inhibition (IC50) against HSD17B13 enzyme [1] fell in the range of 1000 to 10000 nM; against HSD17B13 enzyme [2], 1000 to 5000 nM. For `CC(C)(C)CCn1cnc2cccc(NC(=O)c3cc(Cl)c(O)nn3)c2c1=O` [Example 15, 5-chloro-N-(3-(3,3-dimethylbutyl)-4-oxo-3,4-dihydroquinazolin-5-yl)-6-hydroxypyridazine-3-carboxamide] the same measures were 1000 to 10000 nM and > 10000 nM. For `CC(C)(C)CCn1cnc2cccc(NC(=O)c3ccc(S(=O)(=O)NC(=O)c4cccnc4)c(Cl)c3)c2c1=O` [Example 16, N-((2-chloro-4-((3-(3,3-dimethylbutyl)-4-oxo-3,4-dihydroquinazolin-5-yl)carbamoyl)phenyl)sulfonyl)nicotinamide] the same measures were 1000 to 10000 nM and 5000 to 10000 nM.

Turning to `Cn1c(-c2cccnc2)nc2cccc(NC(=O)c3ccc(-c4nnn[nH]4)c(F)c3)c2c1=O` [Example 17, 3-fluoro-N-(3-methyl-4-oxo-2-(pyridin-3-yl)-3,4-dihydroquinazolin-5-yl)-4-(1H-tetrazol-5-yl)benzamide], the IC50 at HSD17B13 enzyme [1] and on HSD17B13 enzyme [2] was > 10000 nM throughout. As to `CC(C)(C)CCn1cnc2cccc(NC(=O)c3ccc(S(=O)(=O)NC(=O)c4ccccc4)c(Cl)c3)c2c1=O` [Example 18, 4-(N-benzoylsulfamoyl)-3-chloro-N-(3-(3,3-dimethylbutyl)-4-oxo-3,4-dihydroquinazolin-5-yl)benzamide], the IC50 against HSD17B13 enzyme [1] was 1000 to 10000 nM; on HSD17B13 enzyme [2], > 10000 nM. Taken in the same sequence, the figures for `COc1ccccc1CCn1cnc2cccc(NC(=O)c3cc(Cl)c4[nH]c(=O)[nH]c4c3)c2c1=O` [Example 19, 7-chloro-N-(3-(2-methoxyphenethyl)-4-oxo-3,4-dihydroquinazolin-5-yl)-2-oxo-2,3-dihydro-1H-benzo[d]imidazole-5-carboxamide] were > 10000 nM and 1000 to 5000 nM. Taken in the same sequence, the figures for `O=C(Nc1cccc2ncn(Cc3ccncc3)c(=O)c12)c1ccc(O)c(F)c1` [Example 20, 3-fluoro-4-hydroxy-N-(4-oxo-3-(pyridin-4-ylmethyl)-3,4-dihydroquinazolin-5-yl)benzamide] were 100 to 1000 nM and > 10000 nM. `N#Cc1cc(C(=O)Nc2cccc3ncn(Cc4cc[nH]n4)c(=O)c23)cc(F)c1O` [Example 61, N-(3-((1H-pyrazol-3-yl)methyl)-4-oxo-3,4-dihydroquinazolin-5-yl)-3-cyano-5-fluoro-4-hydroxybenzamide] returned an IC50 against HSD17B13 enzyme [1] of 100 to 1000 nM. Still for that read-out and setting: the result for `CS(=O)(=O)c1ccccc1Cn1cnc2cccc(NC(=O)c3cc(F)c(O)c(C#N)c3)c2c1=O` [Example 62, 3-cyano-5-fluoro-4-hydroxy-N-(3-(2-(methylsulfonyl)benzyl)-4-oxo-3,4-dihydroquinazolin-5-yl)benzamide] reads 100 to 1000 nM; that for `CC(C)(C)n1ccc(Cn2cnc3cccc(NC(=O)c4cc(F)c(O)c(C#N)c4)c3c2=O)n1` [Example 63, N-(3-((1-(tert-butyl)-1H-pyrazol-3-yl)methyl)-4-oxo-3,4-dihydroquinazolin-5-yl)-3-cyano-5-fluoro-4-hydroxybenzamide], 100 to 1000 nM.

With `O=C(Nc1cccc2ncn(Cc3ccccc3OC(F)(F)F)c(=O)c12)c1cc(F)c(O)c(C(F)(F)F)c1` [Example 64, 3-fluoro-4-hydroxy-N-(4-oxo-3-(2-(trifluoromethoxy)benzyl)-3,4-dihydroquinazolin-5-yl)-5-(trifluoromethyl)benzamide], on HSD17B13 enzyme [1], the IC50 is ≤ 100 nM. The same measure, in the same setting: the result for `O=C(Nc1cccc2ncn(Cc3cccc(F)c3)c(=O)c12)c1cc(Cl)c(O)c(=O)[nH]1` [Example 65, 4-chloro-N-(3-(3-fluorobenzyl)-4-oxo-3,4-dihydroquinazolin-5-yl)-5-hydroxy-6-oxo-1,6-dihydropyridine-2-carboxamide] reads > 10000 nM.

The values are drawn from patent publication US20230286923A1 (INIPHARM, INC., priority 2020, published 2023).
